Patent US20100286131A1, “VIRAL POLYMERASE INHIBITORS” (BOEHRINGER INGELHEIM INTERNATIONAL GMBH, priority 2007, published 2010)

system: not listed separately; experiment: In vitro metabolism in male human liver microsomes (HLM); format: in vitro ADME; conditions: 1 mg microsomal protein, 2.5 mM NADPH, 2 μM compound, pH 7.4, 37° C.
Experimental: Male human liver microsomes are purchased from Gentest. The pool consisted of microsomes from several donors. The in vitro metabolism in liver microsomes is carried out in a reaction media containing 1 mg of microsomal protein, 2.5 mM NADPH and 2 μM compound in a total volume of 1 ml of 0.066 M Tris buffer, pH 7.4 for 20 minutes at 37° C. Reactions are initiated by the addition of NADPH and terminated at the appropriate times by quenching with an equal volume of a 1:1 mixture of acetonitrile:methanol.

HLM [min] | SMILES
69 | CC(C)N(c1ccc(Oc2ncccc2C(F)(F)F)cc1C(=O)O)C(=O)[C@H]1CC[C@H](C)CC1
136 | CC(C)N(c1cc(F)c(Oc2ncccc2C(F)(F)F)cc1C(=O)O)C(=O)[C@H]1CC[C@H](C)CC1 [Compound 1011]
29 | Cc1nc(Cc2ccc(Oc3ccc(N(C(=O)[C@H]4CC[C@H](C)CC4)C(C)C)c(C(=O)O)c3)c(C(F)(F)F)c2)cs1
129 | Cc1nc(Cc2cnc(Oc3cc(C(=O)O)c(N(C(=O)[C@H]4CC[C@H](C)CC4)C(C)C)cc3F)c(C(F)(F)F)c2)cs1 [Compound 1072]

system: cells expressing a stable subgenomic HCV replicon; experiment: Cell-based luciferase reporter HCV RNA replication assay; conditions: Hepatitis C virus, inhibition of HCV RNA replication, assay of WO 2005/028501
Experimental: Cell-Based Luciferase Reporter HCV RNA Replication Assay
Compounds of the invention are tested for activity as inhibitors of hepatitis C virus RNA replication in cells expressing a stable subgenomic HCV replicon, using the assay described in WO 2005/028501, herein incorporated by reference. Table 4 lists representative compounds of the invention with their EC50 values and a comparative non-fluorinated analog wherein the presence of the fluorine atom provided an unexpected improvement in cell-based potency.

SMILES | EC50 [nM]
CC(C)N(c1cc(F)c(Oc2ccc(Cn3ccc4cccnc43)cc2C(F)(F)F)cc1C(=O)O)C(=O)[C@H]1CC[C@H](C)CC1 [Compound 3033] | 145
CC(C)N(c1ccc(Oc2ncc(CN3CCC(F)(F)C3)cc2C(F)(F)F)cc1C(=O)O)C(=O)[C@H]1CC[C@H](C)CC1 | 89
CC(C)N(c1cc(F)c(Oc2ncc(Cn3cnnc3)cc2C(F)(F)F)cc1C(=O)O)C(=O)[C@H]1CC[C@H](C)CC1 [Compound 1042] | 47
CC(C)N(c1ccc(Oc2ncc(Cn3cnnc3)cc2C(F)(F)F)cc1C(=O)O)C(=O)[C@H]1CC[C@H](C)CC1 | 160
Cc1ccc(OCc2cnc(Oc3cc(C(=O)O)c(N(C(=O)[C@H]4CC[C@H](C)CC4)C(C)C)cc3F)c(C(F)(F)F)c2)c(C)n1 [Compound 1058] | 39.5
CC(C)N(c1cc(F)c(Oc2ccc(Cn3cccc4ccnc3-4)cc2C(F)(F)F)cc1C(=O)O)C(=O)[C@H]1CC[C@H](C)CC1 [Compound 3016] | 72.5
CC(C)N(c1ccc(Cc2ccc(Cn3cccc4ccnc3-4)cc2C(F)(F)F)cc1C(=O)O)C(=O)[C@H]1CC[C@H](C)CC1 | 208
Cc1ccc(OCc2cnc(Oc3ccc(N(C(=O)[C@H]4CC[C@H](C)CC4)C(C)C)c(C(=O)O)c3)c(C(F)(F)F)c2)c(C)n1 | 86.5
CC(C)N(c1ccc(Oc2ccc(Cn3ccc4cccnc43)cc2C(F)(F)F)cc1C(=O)O)C(=O)[C@H]1CC[C@H](C)CC1 | 265
CC(C)N(c1cc(F)c(Oc2ncc(CN3CCC(F)(F)C3)cc2C(F)(F)F)cc1C(=O)O)C(=O)[C@H]1CC[C@H](C)CC1 [Compound 1101] | 41.5
